Biological target: T1, Bifunctional epoxide hydrolase 2 (Homo sapiens, UniProt P34913)
T1 sequence (P34913 whole entry): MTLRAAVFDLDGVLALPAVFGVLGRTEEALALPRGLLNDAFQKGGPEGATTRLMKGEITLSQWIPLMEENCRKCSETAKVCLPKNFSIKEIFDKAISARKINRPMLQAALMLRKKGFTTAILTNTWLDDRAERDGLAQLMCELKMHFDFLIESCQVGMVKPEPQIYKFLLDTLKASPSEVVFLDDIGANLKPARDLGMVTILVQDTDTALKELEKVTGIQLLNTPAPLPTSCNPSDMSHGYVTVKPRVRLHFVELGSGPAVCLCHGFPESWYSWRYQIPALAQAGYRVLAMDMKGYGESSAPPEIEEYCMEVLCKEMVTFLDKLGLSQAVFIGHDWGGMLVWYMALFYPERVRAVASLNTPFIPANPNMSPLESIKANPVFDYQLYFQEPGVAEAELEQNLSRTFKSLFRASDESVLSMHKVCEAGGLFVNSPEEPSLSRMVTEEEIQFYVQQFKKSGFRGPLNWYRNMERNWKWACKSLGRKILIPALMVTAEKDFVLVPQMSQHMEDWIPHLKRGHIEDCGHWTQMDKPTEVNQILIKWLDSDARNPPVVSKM
Experiment: Enzyme Assay: Test compounds (1.6 mM stock in DMSO) were diluted 3 fold in series in DMSO and 0.8 microliters per well were added into 384-well NBS microplates (Corning). Resorufin epoxide substrate (20 uM stock in DMSO) was diluted to 5 μM with Assay Buffer (25 mM bis-Tris-HCl, pH 7.0, 1 mM DTT and 0.2 mg/ml BSA) and 8 microliters per well were added to the microplates. Thirty two microliters per well of 3.6 nM soluble epoxide hydrolase in Assay Buffer was then added. The samples were incubated at room temperature and assay signals were monitored by reading excitation at 530 nm and emission fluorescence at 590 nm on a PlateVision (Zeiss) reader every 2 minutes for 8 times.

`O=C(NCc1ccc(Cl)cc1Cl)N1CC2(C1)CN(S(=O)(=O)c1ccccc1)C2` gave an IC50 of 79 nM.

Reference: ChEMBL document CHEMBL3886262, “Azetidine compounds, compositions and methods of use” (2015)
